Measured values from patent US7811760B2, “Vector and method for detecting the change in transcription amount” (priority 2006, dated 2010).

Assays:
[1] = target: T1, aryl hydrocarbon receptor (Rattus norvegicus, UniProt P41738, Q794H); experiment: Reporter gene assay in Neuro2a with pTHE60/Luc and pTHE60×3/Luc (SEQ ID No: 4); type: cell-based, SD-line rat; conditions: 1 nM and 10 nM TCDD; pTHE60/Luc versus pTHE60×3/Luc
T1 construct: The SD-line rat AhR gene-coding region was amplified from the reverse-transcribed sample by means of PCR; V5-His (C-terminal tag of vector pcDNA4/V5-His B); expressed in transfected cells; host or cells: mouse neuroblastoma Neuro2a, transient transfection with LIPOFECTAMINE 2000
T1 sequence (P41738 10-853 Q794H): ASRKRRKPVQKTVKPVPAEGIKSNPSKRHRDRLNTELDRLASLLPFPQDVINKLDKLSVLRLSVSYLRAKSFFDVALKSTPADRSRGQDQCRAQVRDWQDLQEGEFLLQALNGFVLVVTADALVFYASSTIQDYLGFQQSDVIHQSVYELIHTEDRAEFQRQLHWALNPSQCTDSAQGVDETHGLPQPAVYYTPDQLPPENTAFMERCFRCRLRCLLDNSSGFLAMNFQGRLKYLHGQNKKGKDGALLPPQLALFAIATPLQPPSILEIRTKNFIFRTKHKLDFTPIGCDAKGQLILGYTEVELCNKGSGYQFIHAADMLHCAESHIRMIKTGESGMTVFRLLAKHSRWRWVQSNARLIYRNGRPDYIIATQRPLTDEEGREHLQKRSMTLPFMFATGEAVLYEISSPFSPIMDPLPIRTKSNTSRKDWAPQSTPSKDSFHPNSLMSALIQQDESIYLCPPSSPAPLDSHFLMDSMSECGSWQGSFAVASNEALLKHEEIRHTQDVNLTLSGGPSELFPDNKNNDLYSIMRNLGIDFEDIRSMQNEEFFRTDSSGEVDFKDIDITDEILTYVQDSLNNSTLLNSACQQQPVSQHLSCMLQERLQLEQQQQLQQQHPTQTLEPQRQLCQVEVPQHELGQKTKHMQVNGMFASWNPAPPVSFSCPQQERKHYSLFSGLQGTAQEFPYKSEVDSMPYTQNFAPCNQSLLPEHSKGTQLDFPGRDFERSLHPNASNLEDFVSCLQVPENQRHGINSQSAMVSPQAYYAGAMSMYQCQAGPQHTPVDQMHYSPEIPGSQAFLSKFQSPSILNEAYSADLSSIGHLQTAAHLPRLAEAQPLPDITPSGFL
Method: In Example 9, the region of SEQ ID No: 4 was used as the TCDD-responsive region in the TH transcriptional regulatory region. The region of SEQ ID No: 4 was amplified by PCR using the region of SEQ ID No: 3 as a template and using the following primers: Forward primer: 5′-[…]-3′ (SEQ ID No: 29); and Reverse primer: 5′-[…]-3′ (SEQ ID No: 30). Pyrobest DNA polymerase was used in the PCR. Recognition sequences for restriction enzymes KpnI (for forward primer) and NheI (for reverse primer) were added to the terminal of the respective primers, for the purpose of facilitating incorporation of the PCR amplified fragment into the vector. The terminal of the region of SEQ ID No: 4 amplified by PCR was phosphorylated with 5′-polynucleotide kinase (Takara Bio Inc.), and then, the regions of SEQ ID No: 4 were ligated in tandem with each other by using a ligation kit. The ligated DNA fragments were digested with restriction enzymes KpnI and NheI, and subjected to agarose gel electrophoresis. DNA fragment consisting of a single copy of the region of SEQ ID No: 4 and DNA fragment consisting of three copies of the regions of SEQ ID No: 4 linked in tandem were excised from the gel based on their molecular weight, and purified with a QIAQUICK Gel Extraction Kit. […]

[2] = target: T1, aryl hydrocarbon receptor; experiment: Reporter gene (luciferase) assay in Neuro2a cells carrying PGV-THp25 (2.5 kbp TH transcriptional regulatory region) and pcDNA4-rAhR; type: cell-based, SD-line rat; conditions: PGV-pTH25-introduced Neuro2a; for expression amount of the reporter gene (increase versus unexposed): 30 hours
Source text: In this Example, the PGV-THp25 prepared in Example 2 was used. Neuro2a was used as the cell.
Two kinds of vectors, pcDNA4-rAhR (Example 1) and pcDNA4/V5-His/lacZ (Invitrogen), were introduced into Neuro2a, together with PGV-THp25. pcDNA4-rAhR was introduced for constitutive expression of the SD-line rat AhR gene (SEQ ID No: 10) in the cell, and pcDNA4/V5-His/lacZ was introduced for normalization of the vector transfection efficiency.
The vectors were introduced into the cell by using LIPOFECTAMINE 2000 (Invitrogen). The cell was cultured on a 24-well plate, and the operation was performed according to the manual of Invitrogen. A total of 0.8 μg of vectors (0.4 μg of PGV-THp25, 0.2 μg of pcDNA4-rAhR, and 0.2 μg of pcDNA4/V5-His/lacZ) suspended in 50 μl of OPTI-MEM medium and 2 μl of LIPOFECTAMINE 2000 suspended in 50 μl of OPTI-MEM medium were mixed, and incubated at room temperature for 20 minutes to form nucleic acid/LIPOFECTAMINE 2000 complex. The obtained suspension containing the complex was added to Neuro2a cell culture, which has been previously cultured overnight in 500 μl of DF1:1 medium (containing 10% fetal calf serum) (0.8×10^5 cells were seeded on previous day), to allow incorporation of the vectors into the cell. The cell was cultured additionally for 24 hours after the transfection, for the purpose of improvement in vector incorporation efficiency and expression of the proteins derived from the introduced vectors.
As the test substance, a solution of dioxin (2,3,7,8-tetrachlorodibenzo-p-dioxine, TCDD) in dimethylsulfoxide (manufactured by Kanto Kagaku Co. Inc.) was used. After the transfection and the additional incubation for 24 hours, the medium was replaced with a fresh medium containing TCDD (at 0, 0.01, 1, or 100 nM), and the cell was cultured additionally for 30 hours. After 30 hours, the medium was removed from the 24-well plate, and the cell was washed with phosphate buffer twice. 100 μl of a protein extraction solution (manufactured by TOYO B-NET) was added to each well, and the cell suspension was stirred gently at room temperature for 15 minutes and then frozen at −80° C. The frozen solution was thawed at room temperature, and the resulting solution was recovered in a tube and diluted ten times with a protein extraction reagent containing 1 mg/ml bovine serum albumin. Luciferase and β-galactosidase activities in the diluted solution were measured, and the expression amount of the reporter gene was calculated as a relative luminescence intensity per 1 ng of β-galactosidase per second (RLU/sec/ng β-galactosidase).

Clc1cc2c(cc1Cl)Oc1cc(Cl)c(Cl)cc1O2 [TCDD, 2,3,7,8-tetrachlorodibenzo-p-dioxine]
activity of the test substance on transcriptional regulation, by number of regions of SEQ ID No: 4 [1]: increased according to the increase in the number of the regions incorporated into the vector
expression amount of the reporter gene (increase versus unexposed) ([2]; 0.01 nM TCDD): approximately 1.2 times
expression amount of the reporter gene (increase versus unexposed) ([2]; 1 nM TCDD): approximately 1.6 times
expression amount of the reporter gene (increase versus unexposed) ([2]; 100 nM TCDD): approximately 1.8 times
expression amount of the reporter gene, dose dependence ([2]; 0.01 to 100 nM TCDD): increased dose-dependently
